Where a SMILES comes first, the peptide text is derived from it. Bridges are numbered along the chain shown (N, C = ends). [ ]: non-standard residue; d: D form. The star is where a group is joined. hPhe(3-Cl-4-CF3) = N[C@@H](CCc1ccc(C(F)(F)F)c(Cl)c1)C(=O)O; NPrPhe(4-CF3) = CCCN[C@@H](Cc1ccc(C(F)(F)F)cc1)C(=O)O; NMeGly(cPent) = CN[C@H](C(=O)O)C1CCCC1; NMeD = CN[C@@H](CC(=O)O)C(=O)O; NMeNva = CCC[C@H](NC)C(=O)O; Morpholide = C1CN(*)CCO1; Ac4c = NC1(C(=O)O)CCC1; NPrGly = CCCNCC(=O)O; Sar = CNCC(=O)O
How the values were obtained:
[1] = target: GDP-bound NRAS wild-type protein (Homo sapiens, UniProt P01111); assay: Binding to NRAS by surface plasmon resonance (SPR), Single Cycle Kinetics; conditions: GDP-bound NRAS wild-type vs GDP-bound KRAS wild-type, SPR
[2] = target: GDP-bound HRAS wild-type protein (Homo sapiens, UniProt P01112); assay: Binding to HRAS by surface plasmon resonance (SPR), Single Cycle Kinetics; conditions: GDP-bound HRAS wild-type vs GDP-bound KRAS wild-type, SPR
GDP-bound HRAS wild-type protein, sequence (P01112 whole entry): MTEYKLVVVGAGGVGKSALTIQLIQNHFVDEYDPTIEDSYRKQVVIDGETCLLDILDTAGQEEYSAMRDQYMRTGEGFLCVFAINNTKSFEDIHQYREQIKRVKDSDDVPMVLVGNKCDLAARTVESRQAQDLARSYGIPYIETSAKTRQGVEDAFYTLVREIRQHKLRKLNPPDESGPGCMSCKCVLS

GDP-bound NRAS wild-type protein, sequence (P01111 whole entry): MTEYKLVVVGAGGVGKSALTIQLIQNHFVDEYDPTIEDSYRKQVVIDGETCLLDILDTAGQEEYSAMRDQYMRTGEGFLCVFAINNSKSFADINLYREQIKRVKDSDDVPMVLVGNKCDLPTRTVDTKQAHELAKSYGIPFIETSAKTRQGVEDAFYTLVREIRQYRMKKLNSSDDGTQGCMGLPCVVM

| Structure (SMILES) | NRAS/KRAS (ratio of KD value with respect to NRAS to KD value with respect to KRAS) ([1]; KD ratio) | HRAS/KRAS (ratio of KD value with respect to HRAS to KD value with respect to KRAS) ([2]; KD ratio) | NRAS/KRAS (ratio of KD value for NRAS to KD value for KRAS) ([1]; KD ratio) | HRAS/KRAS (ratio of KD value for HRAS to KD value for KRAS) ([2]; KD ratio) | further results |
| --- | --- | --- | --- | --- | --- |
| CCO[C@@H]1C[C@H]2C(=O)NC3(CCCC3)C(=O)N(C)[C@@H](C3CCCC3)C(=O)N(C)[C@H](C(=O)N3CCOCC3)CC(=O)N(C)[C@@H](COC)C(=O)N[C@@H]([C@@H](C)CC)C(=O)N3CC[C@H]3C(=O)N(C)[C@H]3CCCCCN(C3=O)[C@@H](Cc3ccc(C(F)(F)F)cc3)C(=O)N(C)CC(=O)N[C@@H](CCc3cc(F)c(C(F)(F)F)c(F)c3)C(=O)N2C1 [PP0867] | B (a compound having 3 or more and less than 10 is denoted as B) | B (a compound having 3 or more and less than 10 is denoted as B) | – | – | – |
| CCOC[C@H]1C(=O)N[C@@H]([C@@H](C)CC)C(=O)N(C)CC(=O)N(C)[C@H]2C/C=C\CCN(C2=O)[C@@H](Cc2ccc(C)cc2)C(=O)N(C)CC(=O)N[C@@H](CCc2cc(F)c(C(F)(F)F)c(F)c2)C(=O)N2C[C@H](OCC)C[C@H]2C(=O)NC2(CC(C)(C)C2)C(=O)N(C)[C@@H](C2CCCC2)C(=O)N(C)[C@H](C(=O)N(C)C)CC(=O)N1C [PP2397] | – | – | – | – | NRAS/KRAS (ratio of KD value with respect to NRAS to KD value with respect to KRAS) [1]: A (a compound having 10 or more and less than 20 is denoted as A); HRAS/KRAS (ratio of KD value with respect to HRAS to KD value with respect to KRAS) [2]: A (a compound having 10 or more and less than 20 is denoted as A) |
| CC[C@H](C)[C@@H]1NC(=O)[C@H](CC)N(C)C(=O)C[C@@H](C(=O)N(C)C)N(C)C(=O)[C@H](C2CCCC2)N(C)C(=O)C2(CC(C)(C)C2)NC(=O)[C@@H]2C[C@@H](C)CN2C(=O)[C@H](CCc2ccc(C(F)(F)F)c(OC)c2)NC(=O)CN(C)C(=O)[C@H](Cc2ccc(C)cc2)N2CC/C=C\C[C@@H](C2=O)N(C)C(=O)CN(C)C1=O [PP1838] | – | – | A (a compound having 10 or more and less than 20 is denoted as A) | A (a compound having 10 or more and less than 20 is denoted as A) | – |
| CCC[C@H]1C(=O)N[C@@H]([C@@H](C)CC)C(=O)N(C)CC(=O)N(CCC)CC(=O)N(CCC)[C@@H](Cc2ccc(C(F)(F)F)cc2)C(=O)N(C)CC(=O)N[C@@H](CCc2ccc(C(F)(F)F)c(Cl)c2)C(=O)N2CCC[C@H]2C(=O)NC2(CCC2)C(=O)N(C)[C@@H](C2CCCC2)C(=O)N(C)[C@H](C(=O)N2CCOCC2)CC(=O)N1C [PP1949] ([NMeNva]I[Sar][NPrGly][NPrPhe(4-CF3)][Sar][hPhe(3-Cl-4-CF3)]P[Ac4c][NMeGly(cPent)][NMeD]-Morpholide; lactam N-11) | – | – | C (A compound having a KD ratio of 0.1 or more and less than 3 is denoted as C) | C (A compound having a KD ratio of 0.1 or more and less than 3 is denoted as C) | – |
| CCCO[C@@H]1C[C@H]2C(=O)NC3(CCC3)C(=O)N(C)[C@@H](C3CCCC3)C(=O)N(C)[C@H](C(=O)N3CCOCC3)CC(=O)N(C)[C@@H](COC)C(=O)N[C@@H]([C@@H](C)CC)C(=O)N(C)CC(=O)N(C)[C@H]3CCCCCN(C3=O)[C@@H](Cc3ccc(C(F)(F)F)cc3)C(=O)N(C)CC(=O)N[C@@H](CCc3cc(F)c(C(F)(F)F)c(F)c3)C(=O)N2C1 [PP0838] | B (a compound having 3 or more and less than 10 is denoted as B) | B (a compound having 3 or more and less than 10 is denoted as B) | – | – | – |
| C=CCC[C@H]1C(=O)N[C@@H]([C@@H](C)CC)C(=O)N(C)CC(=O)N(C)[C@H]2CCCCCN(C2=O)[C@@H](Cc2ccc(C(F)(F)F)cc2)C(=O)N(C)CC(=O)N[C@@H](CCc2cc(F)c(C(F)(F)F)c(F)c2)C(=O)N2C[C@H](OCC)C[C@H]2C(=O)N[C@](C)(CC=C)C(=O)N(C)[C@@H](C2CCCC2)C(=O)N(C)[C@H](C(=O)N2CCOCC2)CC(=O)N1C [PP0879] | B (a compound having 3 or more and less than 10 is denoted as B) | B (a compound having 3 or more and less than 10 is denoted as B) | – | – | – |
| C#CC[C@H]1C(=O)N[C@@H]([C@@H](C)CC)C(=O)N(C)CC(=O)N(C)[C@H]2C/C=C\CCN(C2=O)[C@@H](Cc2ccc(C(F)(F)F)cc2)C(=O)N(C)CC(=O)N[C@@H](CCc2cc(F)c(C(F)(F)F)c(F)c2)C(=O)N2C[C@H](F)C[C@H]2C(=O)NC2(CC(C)(C)C2)C(=O)N(C)[C@@H](C2CCCC2)C(=O)N(C)[C@H](C(=O)N(C)CCC)CC(=O)N1C [PP1692] | – | – | AA (a compound having 20 or more is denoted as AA) | A (a compound having 10 or more and less than 20 is denoted as A) | – |
| CCC[C@H]1C(=O)N[C@@H]([C@@H](C)CC)C(=O)N(C)CC(=O)N(C)[C@H]2C/C=C\CCN(C2=O)[C@@H](Cc2ccc(C(F)(F)F)cc2)C(=O)N(C)CC(=O)N[C@@H](CCc2cc(F)c(C(F)(F)F)c(F)c2)C(=O)N2C[C@H](F)C[C@H]2C(=O)NC2(CC(C)(C)C2)C(=O)N(C)[C@@H](C2CCCC2)C(=O)N(C)[C@H](C(=O)N(C)C)CC(=O)N1C [PP1689] | – | – | A (a compound having 10 or more and less than 20 is denoted as A) | B (a compound having 3 or more and less than 10 is denoted as B) | – |

Reference: patent US20250230193A1, “CYCLIC COMPOUND HAVING SELECTIVE KRAS INHIBITORY EFFECT ON HRAS AND NRAS” (CHUGAI SEIYAKU KABUSHIKI KAISHA, priority 2022, published 2025)
